Like-named read-outs stand apart in the source and are kept apart here.
Columns and labels:
RIN 1046-38 cells = assay: Insulin secretion in static incubation, glucose dose response with or without 5-thioglucose; assay type: cell-based; conditions: Rattus norvegicus; 2 mM 5-thioglucose, 0.25 mM glucose + 100 μM IBMX, 2 h; read-out: reduction in insulin secretion
Experimental: (§1) Cells were plated in 12-well dishes (Corning Glass Works, Corning, N.Y.) at a density of approximately 250,000 cells per well and allowed to grow for 48 hours. Cells were washed twice for 20 minutes each in HEPES/bicarbonate buffered salt solution (HBBSS; 114 mM NaCl, 4.7 mM KCl, 1.21 mM KH2 PO4, 1.16 mM MgSO4, 25.5 mM NaHCO3, 2.5 mM CaCl2, 10 mM Hepes) with 0.1% bovine serum albumin but without glucose. Secretion studies were then conducted by incubating cells in HBBSS containing 0.5% BSA and with glucose in a range of concentrations from 0 to 20 mM for two hours. These experiments were conducted in the presence and absence of 2 mM 5-thioglucose (Sigma, St. Louis, Mo.) and in the presence or absence of 100 μM isobutylmethylxanthine (IBMX). Following incubation, media was collected and assayed for insulin by radioimmunoassay with the DPC method, as described above. Secretion was normalized for cell number by measuring total protein in each well by the method of Bradford (1976), using the kit from Bio-Rad, Hercules, Calif.

EP 40/110 cells = assay: as above; assay type: cell-based, rat; conditions: 2 mM 5-thioglucose, + IBMX, 2 h
Experimental: as §1

R5C.I-17 cells = assay: as above; assay type: cell-based, rat
Experimental: as §1

EP 49/206 cells = assay: as above; assay type: cell-based, rat; conditions: 2 mM 5-thioglucose, + IBMX, 2 h
Experimental: as §1

[1] = target: Hexokinases I-III (HK1-111), low Km hexokinases; conditions: HK1-111, Table 1, cited from earlier work
Glucokinase (GK) = conditions: cited from earlier work

O=C[C@H](O)[C@@H](O)[C@H](O)[C@H](S)CO [5-thioglucose]
inhibition at 2000 µM (RIN 1046-38 cells): 50%
effect on insulin secretion response to 0.25 mM glucose (EP 40/110 cells): completely eliminated
inhibition at 2000 µM (EP 40/110 cells; Rattus norvegicus, read-out: reduction of insulin secretion response to 0.5 mM glucose): 70%
maximal fold-response of insulin secretion (R5C.I-17 cells; 2 mM 5-thioglucose present, seen at 1 mM glucose + IBMX (5.7-fold without 5-thioglucose)): 3.9 fold
inhibition at 2000 µM (R5C.I-17 cells; Rattus norvegicus, 2 mM 5-thioglucose, no secretagogues or IBMX alone, 2 h, read-out: suppression of basal insulin secretion): ~50%
effect on insulin secretion response to 0.05 and 0.25 mM glucose (EP 49/206 cells): completely eliminated

O=P(O)(O)OC[C@H]1OC(O)[C@H](O)[C@@H](O)[C@@H]1O (some centres unmarked) [G-6-P, glucose-6-phosphate]
Ki ([1]; read-out: Ki G-6-P): 0.2 to 0.9 mM
Ki (Glucokinase (GK); GK of Table 1, read-out: Ki G-6-P): 60 mM
glucose-6-phosphate concentration required for appreciable inhibition (Glucokinase (GK)): > 10 mM

OC[C@H]1OC(O)[C@H](O)[C@@H](O)[C@@H]1O (some centres unmarked) [glucose]
Km ([1]; read-out: Km glucose): 20 to 130 µM
Km (Glucokinase (GK); GK of Table 1, read-out: Km glucose): 5000 to 12000 µM
Km (Glucokinase (GK); approximate, read-out: Km for glucose): 6000 to 8000 µM

Nc1ncnc2c1ncn2[C@@H]1O[C@H](COP(=O)(O)OP(=O)(O)OP(=O)(O)O)[C@@H](O)[C@H]1O [ATP]
Km ([1]; read-out: Km ATP): 200 to 500 µM
Km (Glucokinase (GK); GK of Table 1, read-out: Km ATP): 500 µM

— patent US6194176A, “Recombinant expression of proteins from secretory cell lines” (priority 1997, dated 2001)
